Measurements reported in patent US8232253B2, “Treatment of lung cancer” (Ramot at Tel-Aviv University Ltd., priority 2006, dated 2012).

Legend:
A549 cells = assay: Cell growth by direct cell counting; type: cell-based; conditions: Homo sapiens, A549, 144 h, cells grown 6 days with FTS, read-out: FTS concentration giving a decrease of 50% in A549 cell growth
Method: FTS was provided by Concordia Pharmaceuticals, Inc. (Ft. Lauderdale, Fla.). All cell lines were obtained from American Type Culture Collection (“ATCC”) (Manassas, Va.). A549 cells, non-small-cell lung carcinoma (CCL, ATCC) cells, were cultured in Kaighn's modification of Ham's F-12 medium containing 1.5 g/l sodium bicarbonate, 10% fetal calf serum (FCS), 100 U/ml penicillin, and 100 μg/ml streptomycin. HTB54 lung carcinoma cells were cultured in McCoy's 5A medium with 10% FCS, 100 U/ml penicillin, and 10 μg/ml streptomycin. […] Cells were treated with the indicated concentrations of FTS (Concordia Pharmaceuticals, Sunrise Fla.) or with 0.1% Me2SO4 (DMSO) (vehicle) 24 h after plating and were counted 5 days later. Dead cells were counted after addition of Hoechst 33258 dye (Sigma-Aldrich, St. Louis, Mo.); 1 μg/ml) to vehicle-treated control cultures or to cultures treated for 24 or 48 h with 75 μM FTS. Fluorescence images were collected 5 min after the dye was added.
To investigate the effect of FTS on lung cancer cell proliferation, we first incubated A549 cells that harbor the activated K-ras gene mutated at codon 12. […] The number of cells in the FTS-treated cultures was determined by direct counting of A549 cells grown for 6 days in the presence of FTS and was expressed as a percentage of the number recorded in the controls. […]

[1] = system: human lung cancer cell lines A549, H23, HTB54, H-1299, HTB-58 (SK-MES-1); assay: Growth inhibition of human lung cancer cell lines by direct cell counting; type: cell-based; conditions: range over A549, H23, HTB54, H-1299, HTB-58 (SK-MES-1), read-out: IC50 of growth inhibition, depending on the cell line
Method: FTS was provided by Concordia Pharmaceuticals, Inc. (Ft. Lauderdale, Fla.). All cell lines were obtained from American Type Culture Collection (“ATCC”) (Manassas, Va.). A549 cells, non-small-cell lung carcinoma (CCL, ATCC) cells, were cultured in Kaighn's modification of Ham's F-12 medium containing 1.5 g/l sodium bicarbonate, 10% fetal calf serum (FCS), 100 U/ml penicillin, and 100 μg/ml streptomycin. HTB54 lung carcinoma cells were cultured in McCoy's 5A medium with 10% FCS, 100 U/ml penicillin, and 10 μg/ml streptomycin. HTB-58 (SK-MES-1, ATCC), a human lung squamous cell carcinoma cell line, was cultured in Eagle's minimum essential medium with 2 mM L-glutamine and Earle's BSS, 1.5 g/l sodium bicarbonate, 0.1 mM non-essential amino acids, 1 mM sodium pyruvate, 10% FCS, 100 U/ml penicillin, and 100 μg/ml streptomycin. […] Cells were treated with the indicated concentrations of FTS (Concordia Pharmaceuticals, Sunrise Fla.) or with 0.1% Me2SO4 (DMSO) (vehicle) 24 h after plating and were counted 5 days later. Dead cells were counted after addition of Hoechst 33258 dye (Sigma-Aldrich, St. Louis, Mo.); 1 μg/ml) to vehicle-treated control cultures or to cultures treated for 24 or 48 h with 75 μM FTS. Fluorescence images were collected 5 min after the dye was added. […]

CC(C)=CCC/C(C)=C/CC/C(C)=C/CSc1ccccc1C(=O)O [FTS, S-farnesylthiosalicylic acid] showed an IC50 (A549 cells) of 40 µM and an IC50 [1] of 30 to 75 µM.
